From ChEMBL document CHEMBL3885881, “DrugMatrix”

Species: Rattus norvegicus
Assay: DrugMatrix - Regimen: Daily Repeat
Type: toxicity, organism-based, Sprague-Dawley
Design: regimen Daily Repeat, gender Male, age 6-8 weeks
Settings: in vivo, po, route oral GAVAGE, vehicle .5 % CMC; for BASOPHIL / EOSINOPHIL / ERYTHROCYTE COUNT / HEMATOCRIT / HEMOGLOBIN / LEUKOCYTE COUNT / LYMPHOCYTE / MEAN CORPUSCULAR HEMOGLOBIN / MEAN CORPUSCULAR HEMOGLOBIN CONCENTRATION / MEAN CORPUSCULAR VOLUME / MONOCYTE / NEUTROPHIL / PLATELET COUNT: tissue Blood; for ALANINE AMINOTRANSFERASE / ALBUMIN / ALKALINE PHOSPHATASE / ASPARTATE AMINOTRANSFERASE / BLOOD UREA NITROGEN / CHLORIDE / CHOLESTEROL / CREATINE PHOSPHOKINASE / CREATININE / GLUCOSE / PHOSPHORUS / POTASSIUM / SODIUM / TOTAL BILIRUBIN / TOTAL PROTEIN: tissue Plasma
[1] = 0 mg/kg, 72 h, dose level Control, time 3 day
[2] = 0 mg/kg, 120 h, dose level Control, time 5 day
[3] = 120 mg/kg, 72 h, dose level Low, time 3 day
[4] = 120 mg/kg, 120 h, dose level Low, time 5 day
[5] = 1500 mg/kg, 72 h, dose level High, time 3 day
[6] = 1500 mg/kg, 120 h, dose level High, time 5 day

## CC1CC(OC(=O)C(O)c2ccccc2)CC(C)(C)C1 (stereo not drawn) [CYCLANDELATE]
[1]
  BASOPHIL: 0%
  EOSINOPHIL: 0%
  ERYTHROCYTE COUNT: 6.34 x10E6/uL
  HEMATOCRIT: 37.62%
  HEMOGLOBIN: 14.82 G/DL
  LEUKOCYTE COUNT: 11.18 x10E3/uL
  LYMPHOCYTE: 87.5%
  MEAN CORPUSCULAR HEMOGLOBIN: 23.48 pg
  MEAN CORPUSCULAR HEMOGLOBIN CONCENTRATION: 39.5 G/DL
  MEAN CORPUSCULAR VOLUME: 59.45 fL
  MONOCYTE: 1.67%
  NEUTROPHIL: 10.83%
  PLATELET COUNT: 1074.83 x10E3/uL
  ALANINE AMINOTRANSFERASE: 36.5 u/L
  ALBUMIN: 3.9 G/DL
  ALKALINE PHOSPHATASE: 370.17 u/L
  ASPARTATE AMINOTRANSFERASE: 63.17 u/L
  BLOOD UREA NITROGEN: 16.83 mg/dL
  CHLORIDE: 99.33 MEQ/L
  CHOLESTEROL: 64.33 mg/dL
  CREATINE PHOSPHOKINASE: 127 u/L
  CREATININE: 0.55 mg/dL
  GLUCOSE: 173.5 mg/dL
  PHOSPHORUS: 10.08 mg/dL
  POTASSIUM: 6.23 MEQ/L
  SODIUM: 143.5 MEQ/L
  TOTAL BILIRUBIN: 0.52 mg/dL
  TOTAL PROTEIN: 6.35 G/DL
[2]
  BASOPHIL: 0%
  EOSINOPHIL: 0.17%
  ERYTHROCYTE COUNT: 6.12 x10E6/uL
  HEMATOCRIT: 37.08%
  HEMOGLOBIN: 14.82 G/DL
  LEUKOCYTE COUNT: 11.87 x10E3/uL
  LYMPHOCYTE: 83.33%
  MEAN CORPUSCULAR HEMOGLOBIN: 24.25 pg
  MEAN CORPUSCULAR HEMOGLOBIN CONCENTRATION: 39.97 G/DL
  MEAN CORPUSCULAR VOLUME: 60.65 fL
  MONOCYTE: 1.5%
  NEUTROPHIL: 15%
  PLATELET COUNT: 1042.83 x10E3/uL
  ALANINE AMINOTRANSFERASE: 46 u/L
  ALBUMIN: 3.82 G/DL
  ALKALINE PHOSPHATASE: 369.5 u/L
  ASPARTATE AMINOTRANSFERASE: 65 u/L
  BLOOD UREA NITROGEN: 16.33 mg/dL
  CHLORIDE: 100.67 MEQ/L
  CHOLESTEROL: 57.17 mg/dL
  CREATINE PHOSPHOKINASE: 130 u/L
  CREATININE: 0.53 mg/dL
  GLUCOSE: 163.33 mg/dL
  PHOSPHORUS: 9.53 mg/dL
  POTASSIUM: 6.27 MEQ/L
  SODIUM: 144.83 MEQ/L
  TOTAL BILIRUBIN: 0.55 mg/dL
  TOTAL PROTEIN: 6.32 G/DL
[3]
  BASOPHIL: 0%
  EOSINOPHIL: 0.67%
  ERYTHROCYTE COUNT: 6.2 x10E6/uL
  HEMATOCRIT: 37.27%
  HEMOGLOBIN: 14.57 G/DL
  LEUKOCYTE COUNT: 11.3 x10E3/uL
  LYMPHOCYTE: 86.33%
  MEAN CORPUSCULAR HEMOGLOBIN: 23.5 pg
  MEAN CORPUSCULAR HEMOGLOBIN CONCENTRATION: 39.1 G/DL
  MEAN CORPUSCULAR VOLUME: 60.1 fL
  MONOCYTE: 1.33%
  NEUTROPHIL: 11.67%
  PLATELET COUNT: 1168 x10E3/uL
  ALANINE AMINOTRANSFERASE: 38.33 u/L
  ALBUMIN: 3.93 G/DL
  ALKALINE PHOSPHATASE: 369.67 u/L
  ASPARTATE AMINOTRANSFERASE: 55.67 u/L
  BLOOD UREA NITROGEN: 14 mg/dL
  CHLORIDE: 99 MEQ/L
  CHOLESTEROL: 67.67 mg/dL
  CREATINE PHOSPHOKINASE: 114.33 u/L
  CREATININE: 0.53 mg/dL
  GLUCOSE: 156 mg/dL
  PHOSPHORUS: 10.37 mg/dL
  POTASSIUM: 6.13 MEQ/L
  SODIUM: 144.67 MEQ/L
  TOTAL BILIRUBIN: 0.37 mg/dL
  TOTAL PROTEIN: 6.33 G/DL
[4]
  BASOPHIL: 0%
  EOSINOPHIL: 0%
  ERYTHROCYTE COUNT: 5.8 x10E6/uL
  HEMATOCRIT: 35%
  HEMOGLOBIN: 14.13 G/DL
  LEUKOCYTE COUNT: 12.1 x10E3/uL
  LYMPHOCYTE: 90.33%
  MEAN CORPUSCULAR HEMOGLOBIN: 24.37 pg
  MEAN CORPUSCULAR HEMOGLOBIN CONCENTRATION: 40.4 G/DL
  MEAN CORPUSCULAR VOLUME: 60.3 fL
  MONOCYTE: 0.67%
  NEUTROPHIL: 9%
  PLATELET COUNT: 1005.67 x10E3/uL
  ALANINE AMINOTRANSFERASE: 37 u/L
  ALBUMIN: 3.63 G/DL
  ALKALINE PHOSPHATASE: 308.67 u/L
  ASPARTATE AMINOTRANSFERASE: 59 u/L
  BLOOD UREA NITROGEN: 13.33 mg/dL
  CHLORIDE: 99.67 MEQ/L
  CHOLESTEROL: 64 mg/dL
  CREATINE PHOSPHOKINASE: 121.33 u/L
  CREATININE: 0.53 mg/dL
  GLUCOSE: 159 mg/dL
  PHOSPHORUS: 10.83 mg/dL
  POTASSIUM: 6.27 MEQ/L
  SODIUM: 145.33 MEQ/L
  TOTAL BILIRUBIN: 0.37 mg/dL
  TOTAL PROTEIN: 5.93 G/DL
[5]
  BASOPHIL: 0%
  EOSINOPHIL: 0%
  ERYTHROCYTE COUNT: 5.97 x10E6/uL
  HEMATOCRIT: 37.13%
  HEMOGLOBIN: 14.77 G/DL
  LEUKOCYTE COUNT: 13.43 x10E3/uL
  LYMPHOCYTE: 84.67%
  MEAN CORPUSCULAR HEMOGLOBIN: 24.83 pg
  MEAN CORPUSCULAR HEMOGLOBIN CONCENTRATION: 39.77 G/DL
  MEAN CORPUSCULAR VOLUME: 62.27 fL
  MONOCYTE: 0.33%
  NEUTROPHIL: 15%
  PLATELET COUNT: 1199 x10E3/uL
  ALANINE AMINOTRANSFERASE: 42.67 u/L
  ALBUMIN: 3.77 G/DL
  ALKALINE PHOSPHATASE: 377.33 u/L
  ASPARTATE AMINOTRANSFERASE: 59.67 u/L
  BLOOD UREA NITROGEN: 13.67 mg/dL
  CHLORIDE: 98.33 MEQ/L
  CHOLESTEROL: 67.67 mg/dL
  CREATINE PHOSPHOKINASE: 127.67 u/L
  CREATININE: 0.57 mg/dL
  GLUCOSE: 161.67 mg/dL
  PHOSPHORUS: 11.5 mg/dL
  POTASSIUM: 6.17 MEQ/L
  SODIUM: 143.33 MEQ/L
  TOTAL BILIRUBIN: 0.57 mg/dL
  TOTAL PROTEIN: 6.03 G/DL
[6]
  BASOPHIL: 0%
  EOSINOPHIL: 0.5%
  ERYTHROCYTE COUNT: 5.77 x10E6/uL
  HEMATOCRIT: 35.95%
  HEMOGLOBIN: 14.35 G/DL
  LEUKOCYTE COUNT: 10.4 x10E3/uL
  LYMPHOCYTE: 91.5%
  MEAN CORPUSCULAR HEMOGLOBIN: 24.9 pg
  MEAN CORPUSCULAR HEMOGLOBIN CONCENTRATION: 39.9 G/DL
  MEAN CORPUSCULAR VOLUME: 62.4 fL
  MONOCYTE: 0%
  NEUTROPHIL: 8%
  PLATELET COUNT: 1077.5 x10E3/uL
  ALANINE AMINOTRANSFERASE: 34.67 u/L
  ALBUMIN: 3.77 G/DL
  ALKALINE PHOSPHATASE: 393 u/L
  ASPARTATE AMINOTRANSFERASE: 55.67 u/L
  BLOOD UREA NITROGEN: 14.33 mg/dL
  CHLORIDE: 100 MEQ/L
  CHOLESTEROL: 87 mg/dL
  CREATINE PHOSPHOKINASE: 123.67 u/L
  CREATININE: 0.57 mg/dL
  GLUCOSE: 158 mg/dL
  PHOSPHORUS: 11.47 mg/dL
  POTASSIUM: 6.4 MEQ/L
  SODIUM: 144.33 MEQ/L
  TOTAL BILIRUBIN: 0.37 mg/dL
  TOTAL PROTEIN: 6.17 G/DL
